Test results as given in patent US8513267B2, “4-anilinoquinazoline derivatives with adenosine-kinase inhibitor properties” (Universidade Estadual de Campinas-Unicamp, priority 2004, dated 2013).
Where two headings read alike, the source gives them in different places. Blank lines part the entries; values can stand above or below the compound they belong to.

Tests used:
cardiac adenosine kinase = target: T1, cardiac adenosine kinase (Rattus norvegicus, UniProt Q64640); test: HPLC adenosine kinase activity test with derivatized adenosine as substrate in myocardium extracts; format: biochemical; conditions: fluorescence detection
T1 construct: used as a substrate in myocardium extracts; from tissue; host or cells: rat myocardium (heart) extract

[1] = system: myocardium of isolated rat hearts; test: Adenosine dosage (HPLC) in the myocardium of isolated rat hearts
From the text: We conducted adenosine dosages in the myocardium of isolated rat hearts with compounds 4d (Example 7) and 4i (Example 17). Chromatograms obtained through HPLC experiments in rat myocardium extracts for dosage of tissue adenosine and AMP are presented in FIG. 6.

isolated rat hearts [2] = test: Concentration-response of quinazoline compounds on left ventricle systolic pressure and heart rate of isolated rat hearts; conditions: for increase in systolic pressure: according to basal absolute values of systolic pressure; for bradycardia response: decrease in heart rate compared to basal values; for Final heart rate: final value after infusions of increased concentrations; for Emax in the fractional pressor response: fractional values; for Initial heart rate: initial value before infusions of increased concentrations; for maximum pressor response (LVP): isolated rat hearts, infused concentrations 30 pM-2 μM
From the text: Systolic pressure responses of the left ventricle were expressed as fractional values, while heart rate responses were expressed as absolute values. […] EC50: concentration of the drug that produces half of the maximum effect.

isolated hearts [3] = test: Concentration-effect experiments with adenosine with and without 8-PT in isolated hearts; parameters: species or system rat; conditions: for EC50: Rattus norvegicus
Method: In Table 3, we present values of Emax, EC50 (nM) and LogEC50 in the fractional pressor response to infusion of increased concentrations of adenosine in isolated hearts perfused with pure HEPES buffer, or with HEPES buffer with 8-PT (mean±S.E.M.).
Both effects were altered by the action of the unspecific adenosine receptor inhibitor, 8-PT (1 μM), added to the perfusion buffer. According to results presented in FIG. 13, the increase in systolic pressure in response to infusion of increased concentrations of adenosine, both in control hearts as in those treated with the unspecific adenosine inhibitor, was almost the same. […] Concerning heart rate, the adenosine bradycardia effect was reduced when the inhibitor was present, showing a decrease of about 15% if compared to basal values of Table 4, where we present initial and final heart rate values (bpm) in the response to infusion of increased concentrations of adenosine in isolated hearts perfused with pure HEPES buffer and HEPES buffer with 8-PT (mean±S.E.M.).

isolated hearts [4] = test: Isolated hearts perfused with propanolol, diltiazem or reduced calcium concentration; parameters: species or system rat; conditions: propanolol or diltiazem blocking, or decreased calcium in perfusion buffer
From the text: There was also a negative correlation between levels of ventricular pressure and heart rate in isolated hearts treated with increased doses of compound 4i (Example 17) in the presence of blockers like propanolol and diltiazem, and reduced concentrations of calcium in the perfusion buffer. In FIG. 11, we presented diagrams of the correlation between increase in systolic pressure and decrease in heart rate in isolated hearts submitted to injections (bolus) of 4i (Example 17) perfused with propanolol, diltiazem and with reduction of the calcium concentration in the perfusion buffer. Data are presented as mean±S.E.M.
Results obtained with 4i (Example 17) and other quinazoline compounds point out that the main functional effect of these compounds on isolated rat hearts is bradycardia, and the pressor effect depends on bradycardia, and thus is a consequence of particularities of the preparation used (i.e., isolated heart) and not a direct effect. Because the bradycardia response was not altered by propanolol or diltiazem blocking, or even by decrease in calcium concentration in the perfusion buffer, our hypothesis is that this effect of quinazoline compounds depends on a direct effect of them on pacemaker cells, or even on an indirect effect through secretion of autocrine or paracrine compounds. […]

isolated rat hearts [5] = test: Heart rate of isolated rat hearts perfused with HEPES buffer with 1 nM 4i with or without 8-PT
Method: In FIG. 14, we present diagrams that represent heart rates of isolated rat hearts perfused with pure HEPES buffer (control), or HEPES buffer with 1 nM of 4i (Example 17), or HEPES buffer with 1 nM of 4i (Example 17) plus 1 μM of unspecific inhibitor of adenosine receptors, 8-PT (4i+8-PT). […] However, perfusion of hearts with 4i (Example 17) and 8-PT annulled bradycardia caused by 4i (Example 17), confirming our hypothesis that the quinazoline compound could be acting in a direct or indirect way on adenosine receptors. In Table 5, we present heart rate values (bpm) from individual experiments of isolated hearts perfused with pure HEPES buffer (control), HEPES buffer with 1 nM of 4i (Example 17), or HEPES buffer with 1 nM of 4i (Example 17) and […] of 8-PT (mean±S.E.M.).

isolated rat hearts [6] = test: Concentration-response in isolated heart with heart rate held constant by electrical stimulator; conditions: heart rate held constant by electrical stimulator (FIG. 12)
From the text: In order to confirm our hypothesis that pressor response of compound 4i depends on bradycardia and not on a direct action of 4i in the inotropism of isolated rat hearts, we conducted experiments where heart rate was held constant during infusion of increased concentrations of 4i (Example 17), through the action of an electrical stimulator. In FIG. 12 we represent the concentration-response relationship to 4i (Example 17) in isolated heart submitted to electrical stimulus.

[7] = Rattus norvegicus, mean±S.E.M., given as negative log values, read-out: LogEC50 in the fractional pressor response (converted)
[8] = Rattus norvegicus, mean±S.E.M., infusion of increased concentrations, read-out: EC50 in the fractional pressor response
[9] = mean±S.E.M., infusion of increased concentrations, hydrochloride

T1 sequence (Q64640 whole entry): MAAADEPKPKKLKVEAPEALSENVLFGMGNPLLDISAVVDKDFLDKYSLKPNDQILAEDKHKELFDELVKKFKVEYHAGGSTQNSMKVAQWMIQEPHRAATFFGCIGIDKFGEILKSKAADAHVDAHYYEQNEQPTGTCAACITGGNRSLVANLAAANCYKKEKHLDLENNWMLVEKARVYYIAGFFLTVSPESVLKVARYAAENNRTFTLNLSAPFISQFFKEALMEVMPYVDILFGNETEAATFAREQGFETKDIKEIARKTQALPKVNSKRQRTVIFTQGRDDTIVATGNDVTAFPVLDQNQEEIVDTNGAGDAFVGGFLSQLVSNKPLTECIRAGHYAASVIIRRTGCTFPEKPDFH

- adenosine kinase inhibition (cardiac adenosine kinase): adenosine kinase inhibitors
Compound: COc1cc2ncnc(Nc3cccc(Br)c3)c2cc1OC.Cl [4d, 6,7-Dimethoxy-4-(3′-bromoanilino)quinazoline hydrochloride]
- effect on amount of myocardial adenosine ([1]; chromatograms of rat myocardium extracts (FIG. 6)): increased substantially
- myocardial adenosine value ([1]; hearts treated with compound, average, basal value 0.48): 0.75 nmol/mg of protein
- EC50 (isolated rat hearts [2]; [7]): 6.31 nM
- EC50 (isolated rat hearts [2]; [8]): 6 ± 1.2 nM
- increase in systolic pressure (isolated rat hearts [2]): ~14%
- bradycardia response (isolated rat hearts [2]): ~25%
- Final heart rate (isolated rat hearts [2]; mean±S.E.M.): 164 ± 3 bpm
- Emax in the fractional pressor response (isolated rat hearts [2]; [9]): 0.3±0.1
- Initial heart rate (isolated rat hearts [2]; mean±S.E.M.): 219 ± 12 bpm
- maximum pressor response (LVP) (isolated rat hearts [2]): 8±4 mmHg

- melting point: 266 to 269 °C
Compound: COc1cc2ncnc(Nc3ccc(I)cc3)c2cc1OC.Cl

Compound: COc1cc2ncnc(Cl)c2cc1OC [3a, 4-chloro-6,7-dimethoxyquinazoline]
- EC50 (isolated rat hearts [2]; [7]): 0.631 nM
- EC50 (isolated rat hearts [2]; [8]): 0.6 ± 0.5 nM
- increase in systolic pressure (isolated rat hearts [2]): ~30%
- bradycardia response (isolated rat hearts [2]): ~29%
- Final heart rate (isolated rat hearts [2]; mean±S.E.M.): 173 ± 1 bpm
- Emax in the fractional pressor response (isolated rat hearts [2]; mean±S.E.M., infusion of increased concentrations): 0.6±0.2
- Initial heart rate (isolated rat hearts [2]; mean±S.E.M.): 242 ± 5 bpm

- EC50 (isolated hearts [3]; HEPES buffer with 8-PT (1 μM), read-out: EC50 pressor response): 30 ± 19 nM
- EC50 (isolated hearts [3]; pure HEPES buffer, given as negative log values, read-out: LogEC50 in the fractional pressor response (converted)): 6.31 nM
- EC50 (isolated hearts [3]; pure HEPES buffer, mean±S.E.M., read-out: EC50 pressor response): 7 ± 1.4 nM
- EC50 (isolated hearts [3]; pure HEPES buffer, read-out: EC50 bradycardia response): 1.8 ± 1.4 nM
Compound: Nc1ncnc2c1ncn2[C@@H]1O[C@H](CO)[C@@H](O)[C@H]1O [Adenosine, adenosine]
- increase in ventricular pressure (isolated hearts [3]; 1 μM adenosine (maximum response)): 16±2 mmHg
- decrease in heart rate (isolated hearts [3]; 8-PT (1 μM) present, compared to basal values): about 15%
- reduction in heart rate (isolated hearts [3]; compared to absolute basal values, 1 μM adenosine (maximum response)): approximately 19%
- Final heart rate (isolated hearts [3]; pure HEPES buffer, final value after increased concentrations): 185 ± 2 bpm
- Initial heart rate (isolated hearts [3]; pure HEPES buffer, initial value): 228 ± 2 bpm
- Emax in the fractional pressor response (isolated hearts [3]; pure HEPES buffer, mean±S.E.M.): 0.93 ± 0.05

- melting point: 227 to 229 °C
Compound: COc1cc2ncnc(Nc3ccc(C)cc3)c2cc1OC.Cl

- adenosine kinase inhibition (cardiac adenosine kinase): adenosine kinase inhibitors
Compound: COc1cc2ncnc(Nc3cccc(N(C)C)c3)c2cc1OC.Cl [4i, 6,7-Dimethoxy-4-(3′-N′,N′-dimethylaminoanilino)quinazoline hydrochloride]
- bradycardia response under blocking (isolated hearts [4]): not altered
- reduction of heart rate (isolated rat hearts [5]; 1 nM 4i, compared to control hearts): approximately 17%
- Heart Rate (isolated rat hearts [5]; HEPES buffer with 1 nM 4i, control 233 ± 7): 194 ± 7 bpm
- pressor response with heart rate controlled (isolated rat hearts [6]): almost annulled
- increase in systolic pressure (isolated rat hearts [2]): approximately 35%
- bradycardia response (isolated rat hearts [2]): approximately 24%
- Final heart rate (isolated rat hearts [2]; mean±S.E.M.): 173 ± 8 bpm
- Emax in the fractional pressor response (isolated rat hearts [2]; [9]): 0.9±0.2
- Initial heart rate (isolated rat hearts [2]; mean±S.E.M.): 228 ± 7 bpm
- maximum pressor response (LVP) (isolated rat hearts [2]): 27±3 mmHg
- LogEC50 in the fractional pressor response (isolated rat hearts [2]; mean±S.E.M., given as negative log values): −9.9 ± 0.3
- EC50 (isolated rat hearts [2]; mean±S.E.M., infusion of increased concentrations, read-out: EC50 in the fractional pressor response): 0.1 ± 0.03 nM

- melting point: 219 to 221 °C
Compound: COc1cc2ncnc(Nc3cccc(C(C)=O)c3)c2cc1OC.Cl

- melting point: 218 to 220 °C
Compound: COc1cc2ncnc(Nc3ccc(C(C)=O)cc3)c2cc1OC.Cl
